Measured values reported in the NIST ThermoML archive (doi:10.1021/je7005055).

Legend:
[1] = 298.15 K; 101.33 kPa; Liquid
[2] = xn = mol fraction of the nth substance listed; settings: 298.15 K, 101 kPa, Liquid

CCCCCCCCO [octan-1-ol]
Settings	mass density [kg/m3]
[1]	821.65

CN1CCOCC1 [N-methylmorpholine] + CCCCCCCCO
[2]
Settings	mass density [kg/m3]
x1 = 0.0461	823.88
x1 = 0.1101	827.55
x1 = 0.1862	832.09
x1 = 0.2381	835.33
x1 = 0.2848	838.58
x1 = 0.3484	843.06
x1 = 0.4029	846.99
x1 = 0.4899	853.86
x1 = 0.5121	855.92
x1 = 0.6012	863.81
x1 = 0.6547	869.5
x1 = 0.7213	875.97
x1 = 0.7831	883.26
x1 = 0.8353	889.72
x1 = 0.8958	897.82
x1 = 0.9541	905.92
x1 = 0.9792	909.72

CN1CCOCC1 [N-methylmorpholine] + CCO
[2]
Settings	mass density [kg/m3]
x1 = 0.0511	797.55
x1 = 0.1166	812.41
x1 = 0.1795	825.38
x1 = 0.2438	837.23
x1 = 0.2795	843.43
x1 = 0.3532	854.69
x1 = 0.4021	861.24
x1 = 0.4573	867.56
x1 = 0.4982	871.73
x1 = 0.5342	875.35
x1 = 0.5832	879.41
x1 = 0.6432	884.36
x1 = 0.7234	890.96
x1 = 0.7786	895.53
x1 = 0.8216	899.13
x1 = 0.8794	904.05
x1 = 0.9432	909.42
x1 = 0.9832	912.63

CCO [ethanol]
Settings	mass density [kg/m3]
[1]	784.94

CCCCCO [pentan-1-ol]
Settings	mass density [kg/m3]
[1]	810.83

CCCO [propan-1-ol]
Settings	mass density [kg/m3]
[1]	799.52

CCCCO [butan-1-ol]
Settings	mass density [kg/m3]
[1]	805.92

CCCCCCO [hexan-1-ol]
Settings	mass density [kg/m3]
[1]	814.95

CN1CCOCC1 [N-methylmorpholine] + CCCCCO
[2]
Settings	mass density [kg/m3]
x1 = 0.0487	813.72
x1 = 0.1129	820.02
x1 = 0.1766	826.08
x1 = 0.2412	832.41
x1 = 0.2801	836.23
x1 = 0.3998	847.87
x1 = 0.4612	854.03
x1 = 0.5826	866.38
x1 = 0.6444	872.93
x1 = 0.7267	881.91
x1 = 0.7801	887.89
x1 = 0.8226	892.69
x1 = 0.8811	899.57
x1 = 0.9428	907.1
x1 = 0.9854	912.11

CN1CCOCC1 [N-methylmorpholine] + CCCO
[2]
Settings	mass density [kg/m3]
x1 = 0.0237	803.87
x1 = 0.1003	816.55
x1 = 0.1657	826.67
x1 = 0.2336	836.52
x1 = 0.2812	843.01
x1 = 0.3458	851.12
x1 = 0.3988	857.14
x1 = 0.4476	861.99
x1 = 0.5784	874.68
x1 = 0.6347	879.93
x1 = 0.7195	888.06
x1 = 0.7684	892.76
x1 = 0.8327	898.56
x1 = 0.8674	901.93
x1 = 0.9443	908.83
x1 = 0.9878	912.75

CN1CCOCC1 [N-methylmorpholine] + CCCCCCO
[2]
Settings	mass density [kg/m3]
x1 = 0.0459	818.34
x1 = 0.1098	823.37
x1 = 0.1852	829.49
x1 = 0.2377	833.69
x1 = 0.2855	837.76
x1 = 0.3495	843.34
x1 = 0.4034	848.09
x1 = 0.4887	855.97
x1 = 0.5129	858.26
x1 = 0.5998	866.75
x1 = 0.6583	872.76
x1 = 0.7174	879.14
x1 = 0.7844	886.51
x1 = 0.8341	892.31
x1 = 0.8964	899.75
x1 = 0.9538	907.13
x1 = 0.9784	910.69

CN1CCOCC1 [N-methylmorpholine]
Settings	mass density [kg/m3]
[1]	914.06

CN1CCOCC1 [N-methylmorpholine] + CCCCO
[2]
Settings	mass density [kg/m3]
x1 = 0.0455	811.49
x1 = 0.1089	818.95
x1 = 0.1675	825.55
x1 = 0.2399	833.8
x1 = 0.2811	838.33
x1 = 0.3494	845.7
x1 = 0.3985	850.99
x1 = 0.4533	856.71
x1 = 0.5285	864.54
x1 = 0.6444	876.67
x1 = 0.7198	885.45
x1 = 0.7865	891.47
x1 = 0.8237	895.31
x1 = 0.8843	901.73
x1 = 0.9411	907.87
x1 = 0.9801	912
